Assay in all cases: relative viability (nuclei count vs DMSO), 5 days (fraction); higher = more cells survive
Compound in the experiment “Cediranib + Phenformin”: COc1cc2c(Oc3ccc4[nH]c(C)cc4c3F)ncnc2cc1OCCCN1CCCC1 [Cediranib] + N=C(N)NC(=N)NCCc1ccccc1 [Phenformin] (partner 250 µM)
A digest of the protocol: (§1)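 Lung cancer cell lines were pin-tool dosed in 1536-well plates on the day after seeding, with either a lone drug or a fixed anchor-drug dose plus five library-drug doses (not always all listed) in √10 steps. Nuclei were counted on 4× images after 5 days. Relative viability is the ratio of treated-well to vehicle-well nuclei counts, with each value a median of duplicate plates.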

Compound in experiment [1]: O=C(C[C@H]1NCCC[C@@H]1O)Cn1cnc2cc(Br)c(Cl)cc2c1=O (racemic) [Halofuginone] + C[C@]1(O)C[C@@H](c2nc(-c3ccc4ccc(-c5ccccc5)nc4c3)c3c(N)nccn32)C1 [Linsitinib] (partner 1 µM)
In outline: as §1

Compound in the experiment “Decitabine + Lapatinib”: Nc1ncn([C@H]2C[C@H](O)[C@@H](CO)O2)c(=O)n1 [Decitabine] + CS(=O)(=O)CCNCc1ccc(-c2ccc3ncnc(Nc4ccc(OCc5cccc(F)c5)c(Cl)c4)c3c2)o1 [Lapatinib] (partner 2 µM)
In outline: as §1

Compound in the experiment “Cediranib + Alpelisib”: COc1cc2c(Oc3ccc4[nH]c(C)cc4c3F)ncnc2cc1OCCCN1CCCC1 [Cediranib] + Cc1nc(NC(=O)N2CCC[C@H]2C(N)=O)sc1-c1ccnc(C(C)(C)C(F)(F)F)c1 [Alpelisib] (partner 2 µM)
A digest of the protocol: as §1

Here are results for seven cell lines from the supplement of paper PMC10307832.

On to NCI-H1975, for which the relative viability with Cediranib + Phenformin (first compound 0.04 µM) amounted to 0.421; in the experiment with Cediranib + Phenformin (first compound 0.1265 µM), 0.415; with Cediranib + Phenformin (first compound 0.4 µM), 0.394; in the experiment with Cediranib + Phenformin (first compound 1.265 µM), 0.459; with Cediranib + Phenformin (first compound 4 µM), 0.426; in experiment [1] (first compound 0.001 µM), 1.09. The relative viability in experiment [1] (first compound 0.003162 µM) is 0.924; in experiment [1] (first compound 0.01 µM), 0.976; in experiment [1] (first compound 0.03162 µM) it was 0.497; in experiment [1] (first compound 0.1 µM) it was 0.15; with Decitabine + Lapatinib (first compound 0.04 µM), 0.538; with Decitabine + Lapatinib (first compound 0.1265 µM) it was 0.456. Moreover, the relative viability turned out to be 0.364 in the experiment with Decitabine + Lapatinib (first compound 0.4 µM); 0.327 with Decitabine + Lapatinib (first compound 1.265 µM); 0.29 with Decitabine + Lapatinib (first compound 4 µM); 0.716 with Cediranib + Alpelisib (first compound 0.04 µM); 0.621 with Cediranib + Alpelisib (first compound 0.1265 µM); 0.619 in the experiment with Cediranib + Alpelisib (first compound 0.4 µM). In addition, the relative viability with Cediranib + Alpelisib (first compound 1.265 µM) is 0.677; in the experiment with Cediranib + Alpelisib (first compound 4 µM) it was 0.591.
For COR-L 105, the relative viability in the experiment with Cediranib + Phenformin (first compound 0.04 µM) is 0.4; with Cediranib + Phenformin (first compound 0.1265 µM), 0.58; with Cediranib + Phenformin (first compound 0.4 µM) it was 0.497; with Cediranib + Phenformin (first compound 1.265 µM) it was 0.519; with Cediranib + Phenformin (first compound 4 µM) it was 0.523; in experiment [1] (first compound 0.001 µM), 1.13. Moreover, the relative viability in experiment [1] (first compound 0.003162 µM) stood at 0.932; in experiment [1] (first compound 0.01 µM) it was 0.764; in experiment [1] (first compound 0.03162 µM), 0.748; in experiment [1] (first compound 0.1 µM), 0.753; with Decitabine + Lapatinib (first compound 0.04 µM) it was 0.345; with Decitabine + Lapatinib (first compound 0.1265 µM) it was 0.317. The relative viability stood at 0.328 with Decitabine + Lapatinib (first compound 0.4 µM); 0.326 with Decitabine + Lapatinib (first compound 1.265 µM); 0.28 in the experiment with Decitabine + Lapatinib (first compound 4 µM); 1.14 in the experiment with Cediranib + Alpelisib (first compound 0.1265 µM); 0.862 in the experiment with Cediranib + Alpelisib (first compound 0.4 µM); 1.14 in the experiment with Cediranib + Alpelisib (first compound 1.265 µM). In addition, in the experiment with Cediranib + Alpelisib (first compound 4 µM), the relative viability came out at 1.1.
For the cell line LK-2, the relative viability with Cediranib + Phenformin (first compound 0.04 µM) amounted to 0.38; with Cediranib + Phenformin (first compound 0.1265 µM), 0.175; with Cediranib + Phenformin (first compound 0.4 µM), 0.35; in the experiment with Cediranib + Phenformin (first compound 1.265 µM), 0.418; in the experiment with Cediranib + Phenformin (first compound 4 µM) it was 0.29; in experiment [1] (first compound 0.001 µM), 0.722. Further, the relative viability in experiment [1] (first compound 0.003162 µM) is 0.656; in experiment [1] (first compound 0.01 µM) it was 0.433; in experiment [1] (first compound 0.03162 µM), 0.609; in experiment [1] (first compound 0.1 µM), 0.452; in the experiment with Decitabine + Lapatinib (first compound 0.04 µM) it was 0.784; in the experiment with Decitabine + Lapatinib (first compound 0.1265 µM), 0.991. Moreover, the relative viability in the experiment with Decitabine + Lapatinib (first compound 0.4 µM) is 0.75; in the experiment with Decitabine + Lapatinib (first compound 1.265 µM), 0.521; in the experiment with Decitabine + Lapatinib (first compound 4 µM), 0.402; with Cediranib + Alpelisib (first compound 0.04 µM) it was 1.36; with Cediranib + Alpelisib (first compound 0.1265 µM), 1.01; with Cediranib + Alpelisib (first compound 0.4 µM), 1.13. In addition, the results for the relative viability with Cediranib + Alpelisib (first compound 1.265 µM) and in the experiment with Cediranib + Alpelisib (first compound 4 µM) were 1.11 and 0.475, respectively.
As to EKVX, the relative viability in the experiment with Cediranib + Phenformin (first compound 0.04 µM) was found to be 0.212; with Cediranib + Phenformin (first compound 0.1265 µM) it was 0.177; in the experiment with Cediranib + Phenformin (first compound 0.4 µM) it was 0.221; with Cediranib + Phenformin (first compound 1.265 µM) it was 0.259; with Cediranib + Phenformin (first compound 4 µM), 0.233; in experiment [1] (first compound 0.001 µM) it was 1.02. The relative viability in experiment [1] (first compound 0.003162 µM) came to 0.966; in experiment [1] (first compound 0.01 µM), 0.916; in experiment [1] (first compound 0.03162 µM) it was 1.06; in experiment [1] (first compound 0.1 µM) it was 0.762; with Decitabine + Lapatinib (first compound 0.04 µM), 0.211; in the experiment with Decitabine + Lapatinib (first compound 0.1265 µM), 0.2. Also, the relative viability in the experiment with Decitabine + Lapatinib (first compound 0.4 µM) is 0.213; with Decitabine + Lapatinib (first compound 1.265 µM), 0.184; with Decitabine + Lapatinib (first compound 4 µM), 0.163; with Cediranib + Alpelisib (first compound 0.04 µM), 0.961; with Cediranib + Alpelisib (first compound 0.1265 µM) it was 1.2; with Cediranib + Alpelisib (first compound 0.4 µM), 0.849. Further, the relative viability in the experiment with Cediranib + Alpelisib (first compound 1.265 µM) was 0.879; with Cediranib + Alpelisib (first compound 4 µM) it was 0.836.
For the cell line NCI-H2009, the relative viability in the experiment with Cediranib + Phenformin (first compound 0.04 µM) was 0.492; with Cediranib + Phenformin (first compound 0.1265 µM), 0.434; in the experiment with Cediranib + Phenformin (first compound 0.4 µM), 0.481; in the experiment with Cediranib + Phenformin (first compound 1.265 µM) it was 0.481; in the experiment with Cediranib + Phenformin (first compound 4 µM), 0.493; in experiment [1] (first compound 0.001 µM) it was 1.27. In addition, the relative viability in experiment [1] (first compound 0.003162 µM) turned out to be 1.12; in experiment [1] (first compound 0.01 µM) it was 1.19; in experiment [1] (first compound 0.03162 µM), 0.872; in experiment [1] (first compound 0.1 µM), 0.81; in the experiment with Decitabine + Lapatinib (first compound 0.04 µM) it was 0.8; in the experiment with Decitabine + Lapatinib (first compound 0.1265 µM) it was 0.599. For the same cell line, the relative viability in the experiment with Decitabine + Lapatinib (first compound 0.4 µM) turned out to be 0.225; in the experiment with Decitabine + Lapatinib (first compound 1.265 µM), 0.268; in the experiment with Decitabine + Lapatinib (first compound 4 µM), 0.276; with Cediranib + Alpelisib (first compound 0.04 µM) it was 1.18; with Cediranib + Alpelisib (first compound 0.1265 µM), 1.13; with Cediranib + Alpelisib (first compound 0.4 µM), 1.09. The relative viability turned out to be 1.16 with Cediranib + Alpelisib (first compound 1.265 µM) and 1.14 with Cediranib + Alpelisib (first compound 4 µM).
NCI-H838: the relative viability is 0.588 with Cediranib + Phenformin (first compound 0.04 µM); 0.513 with Cediranib + Phenformin (first compound 0.1265 µM); 0.49 with Cediranib + Phenformin (first compound 0.4 µM); 0.452 with Cediranib + Phenformin (first compound 1.265 µM); 0.603 with Cediranib + Phenformin (first compound 4 µM); 1.03 in experiment [1] (first compound 0.001 µM). In addition, the relative viability was 0.857 in experiment [1] (first compound 0.003162 µM); 0.94 in experiment [1] (first compound 0.01 µM); 0.549 in experiment [1] (first compound 0.03162 µM); 0.127 in experiment [1] (first compound 0.1 µM); 0.566 in the experiment with Decitabine + Lapatinib (first compound 0.04 µM); 0.549 with Decitabine + Lapatinib (first compound 0.1265 µM). Also, the relative viability in the experiment with Decitabine + Lapatinib (first compound 0.4 µM) is 0.226; in the experiment with Decitabine + Lapatinib (first compound 1.265 µM), 0.307; with Decitabine + Lapatinib (first compound 4 µM), 0.205; with Cediranib + Alpelisib (first compound 0.04 µM) it was 1.06; with Cediranib + Alpelisib (first compound 0.1265 µM) it was 0.997; with Cediranib + Alpelisib (first compound 0.4 µM) it was 0.97. Besides, the relative viability turned out to be 0.962 in the experiment with Cediranib + Alpelisib (first compound 1.265 µM) and 1.13 with Cediranib + Alpelisib (first compound 4 µM).
As to NCI-H2085, the relative viability in the experiment with Cediranib + Phenformin (first compound 0.04 µM) worked out at 0.655; with Cediranib + Phenformin (first compound 0.1265 µM), 0.844; with Cediranib + Phenformin (first compound 0.4 µM) it was 0.632; with Cediranib + Phenformin (first compound 1.265 µM) it was 0.753; with Cediranib + Phenformin (first compound 4 µM) it was 0.814; in experiment [1] (first compound 0.001 µM) it was 0.863. Moreover, the relative viability amounted to 1.01 in experiment [1] (first compound 0.003162 µM); 0.864 in experiment [1] (first compound 0.01 µM); 0.898 in experiment [1] (first compound 0.03162 µM); 0.627 in experiment [1] (first compound 0.1 µM); 0.628 with Decitabine + Lapatinib (first compound 0.04 µM); 0.646 with Decitabine + Lapatinib (first compound 0.1265 µM). Moreover, the relative viability with Decitabine + Lapatinib (first compound 0.4 µM) amounted to 0.446; with Decitabine + Lapatinib (first compound 1.265 µM), 0.494; with Decitabine + Lapatinib (first compound 4 µM), 0.445; in the experiment with Cediranib + Alpelisib (first compound 0.04 µM), 1.02; with Cediranib + Alpelisib (first compound 0.1265 µM), 0.94; with Cediranib + Alpelisib (first compound 0.4 µM), 0.974. Also, the relative viability in the experiment with Cediranib + Alpelisib (first compound 1.265 µM) was determined as 1.09; with Cediranib + Alpelisib (first compound 4 µM) it was 0.953.
